The record followed here is a melting point compilation (Tetko et al.; mined from patent text by program, amines drawn as free bases though some values may be those of a salt).

SMILES strings stand for the structures.

In general, melting point refers to the temperature, or range, at which the solid turns liquid.

Take `CN(C)C(=O)Sc1cc(SC(=O)N(C)C)cc(C(N)=O)c1`: the melting point fell in the range of 264 to 265 °C.

With `CCOC(=O)/C=C/c1cn(Cc2ccc(OCc3ccccc3)cc2)nc1-c1ccccc1`, the melting point was in the range of 94 to 95 °C.

In the case of `C[C@@H](NC(=O)[C@H](Cc1ccc(OC(C)(C)C)cc1)N(C)C(=O)OC(C)(C)C)C(=O)O`, the melting point was 109 to 110 °C.

`CCOc1nc2ccccc2nc1N(CC)C(=O)N1CCN(c2cc(C)cc(C)c2)CC1` registered a melting point of 142 to 144 °C.

`CCn1cc(C(=O)O)c(=O)c2cc(F)c(-c3csc(CNC)n3)c(O)c21` came in with a melting point of 242 to 246 °C.

`CCOc1ccccc1C1=NC(=O)C2=NC=NC2=N1` showed a melting point of 276 to 277 °C.

Compound `Cc1cccc(C(=O)CC(=O)C2CCCCC2)c1O` gave a melting point of 42 to 43 °C.

In turn, `COC(=O)c1cc(-c2ccc(OC)c(Cl)c2)nn(CC=Cc2ccc(Cl)cc2)c1=O` gave a melting point of 180 to 182 °C.

In turn, `COc1ccc2c3c(c(=O)oc2c1)CN(Cc1ccc(Cl)c(Cl)c1)CC3` gave a melting point of 144 to 146 °C.

For the compound `CC(O)Cn1c(COCc2ccccc2)nc(C(C)C)c1Sc1cc(Cl)cc(Cl)c1` (stereo not drawn), the melting point lay in the range of 155 to 157 °C.

As to `COC(=O)CCCc1cc2cc(Cl)ccc2n1S(=O)(=O)c1ccc2c(c1)CCO2`, the melting point was 132 to 137 °C.

Take `CCOC(=O)c1cc2cc(OCCOC)cc(N)c2[nH]1`: the melting point was in the range of 162 to 163 °C.

Compound `CC(C)(C)CC(=O)Oc1ccc(-c2nn(C3CCCC3)c3c(F)cccc23)cc1` had a melting point of 74 to 75 °C.

Compound `COc1ccc(CN(C)CCCCc2ccc(NC(=O)c3cccc4c(=O)c5ccccc5n(C)c34)cc2)cc1OC` displayed a melting point of 142 °C.

Consider `CC(C)Cn1c(=O)n(C)c(=O)c2nc(-c3ccc(/C=C/C(=O)O)cc3)[nH]c21`, for which the melting point is > 300 °C.

In turn, `O=C1OC(=O)[C@@H]2CCC[C@H]12` gave a melting point of 63 to 68 °C.

`CCOC(=O)c1cc(CC)sc1Nc1ccc([N+](=O)[O-])cc1N` returned a melting point of 174 to 176 °C.

For `O=C1NN(c2ccccc2)CC1CN1CCOCC1` (stereo not drawn), the melting point was 143 to 144 °C.

In the case of `CC1(C)CC(=O)C2=C(C1)NC1=C(C(=O)CC(C)(C)C1)C2c1cccc(Oc2cnccn2)c1`, the melting point is 204 to 207 °C.

`COc1ccc2c(c1)S(=O)(=O)N(CCCN1CCN(c3ncccn3)CC1)C(=O)N2` registered a melting point of 178 °C.

Take `COC(=O)CCCOc1ccc2nc3[nH]c(=O)[nH]c3cc2c1`: the melting point was 299 to 301 °C.

With `CCOC(=O)/C=C\n1c(=O)n2nc(C(=O)OCC)cc2c2ccc(Cl)cc21`, the melting point was 215 to 217 °C.

Compound `CC1(C)OC(C(F)(F)F)Nc2ccc(-c3cc(F)cc(C#N)c3)cc21` (stereo not drawn) came in with a melting point of 102 to 103 °C.

In the case of `CCOC(=O)C(=O)Nc1cc(O)ccc1O`, the melting point is > 300 °C.

On to `COCCN(C)Cc1ccc(NC(=O)C#Cc2ccc(-c3ccc(Cl)cc3)cc2)cc1`, for which the melting point lay within 130 to 133 °C.

Regarding `N#Cc1nc(Cl)c(Cl)nc1C#N`, the melting point was in the range of 180 to 182 °C.

The compound `COc1ccc(-c2[nH]nc3c2C(=O)c2c(NC(=O)Cc4cc(OC)ccc4OC)cccc2-3)cc1` gave a melting point of 226 °C.

For the compound `COc1ccc(C(=O)O)cc1OC1CCSC1` (stereo not drawn), the melting point lay in the range of 177 to 179 °C.

`CC1CCOCC1C(C#N)=NO` (stereo not drawn) yielded a melting point of 94 to 96 °C.

The compound `O=C1CCC(c2ccc(-c3nccs3)cc2)=NN1` yielded a melting point of 265 to 266 °C.

For `O=C(Nc1ccc(C(=O)N2Cc3ccccc3Cc3ccccc32)cc1)c1ccc(F)cc1F`, the melting point lay in the range of 215 to 217 °C.

`CN(C)C(=S)SC(C[N+](=O)[O-])c1ccc(Br)cc1` (stereo not drawn) registered a melting point of 79 to 81 °C.

`C[C@@H](n1cnc2cc(C(F)(F)F)ccc2c1=O)[C@](O)(Cn1cncn1)c1ccc(Cl)cc1Cl` came in with a melting point of 158 to 160 °C.

`CN1CCCC(CC(=O)c2ccc(Cl)c(Cl)c2)C1` (stereo not drawn) gave a melting point of 69 to 71 °C.

`CNC(=O)[C@@H](C[C@H](O)[C@H](CC(C)C)NC(=O)OC(C)(C)C)C(C)(C)O` returned a melting point of 121 to 123 °C.

As for `Cc1ncccc1CN(CCn1cc(C)c2occc2c1=O)Cc1ccc2c(c1)N(CC(C)C)C(=O)C(C)(C)C(=O)N2`, the melting point is 206 to 208 °C.

The compound `COC(=O)c1c(Cc2ccc(S(=O)(=O)N3CCN(C)CC3)cc2)c(=O)c2ccc(Cl)cc2n1-c1ccccc1` yielded a melting point of 223 to 227 °C.

As to `COc1ccc(C)c(NC(=O)CC2C3CC4CC(C3)CC2C4)c1` (stereo not drawn), the melting point lay within 193 to 196 °C.

In turn, `CC1=NN(c2ccc(CO)cc2)C(=O)C1` displayed a melting point of 139 to 140 °C.

Take `O=C(Nc1ccc(N2CCN(C(=O)Nc3ccc(OCCO)cc3C(F)(F)F)CC2)cc1)Nc1cccc2c1OCC2`: the melting point lay within 218 to 220 °C.

Consider `O=C(Nc1nccs1)C1CSc2sccc2C1=O` (stereo not drawn), for which the melting point lay in the range of 201 to 203 °C.

For `C#Cc1c2ccccc2nc2c(OC)ccc(OC)c12`, the melting point fell in the range of 155 to 157 °C.

Compound `CCCCc1nccc2ccc(C(=O)N[C@@H](Cc3cc(F)cc(F)c3)[C@H](O)CNCc3cccc(CC)c3)cc12` had a melting point of 109 to 110 °C.

In the case of `CCOC(=O)c1cnn(-c2ccc(OCC(C)(C)COC(=O)c3ccccc3)c(C#N)c2)c1`, the melting point lay in the range of 112 to 114 °C.

The compound `COCCc1nc2c(N)nc3ccccc3c2n1CCCCCCCCNC(=O)c1ccccc1` registered a melting point of 133 to 138 °C.

`COc1ccc(C(=O)NCc2ccc(NC3=NCCN3)cc2)cc1`: the melting point fell in the range of 160 to 161 °C.

With `O=C(c1ccc(-c2ccncc2)nc1)N1CCN(S(=O)(=O)c2ccc3cc(Br)ccc3c2)CC1`, the melting point stood at 194 °C.

`COc1nc2ccccn2c(=O)c1-c1ccc(NC2CCN(C(=O)OC(C)(C)C)C2)cc1` (stereo not drawn) yielded a melting point of 102 to 104 °C.

Regarding `OCCNc1c2c(nc3cn[nH]c13)CCCC2`, the melting point was 205 to 210 °C.

Take `O=C(NC(Cc1ccccc1)C(=O)O)OCc1ccc(CCCc2ccccc2)cc1` (stereo not drawn): the melting point was 135 °C.

`COC(=O)CCCc1cc2nc(Cl)ccc2n1S(=O)(=O)c1cc(OC)ccc1OC` had a melting point of 102 °C.

Consider `CCCC(NS(=O)(=O)c1ccc(Cl)cc1)C(=S)Nc1ccc(CCC(=O)OC)cc1` (racemic), for which the melting point lay within 116 to 118 °C.

With `CC(Cl)(Cl)C(NC(=O)c1cccc(Cl)c1)NC(=NC#N)Nc1ccc(C(F)(F)F)nc1` (stereo not drawn), the melting point fell in the range of 191 to 192 °C.

`CNC(=O)c1ccc(CCN2CC=C(c3c[nH]c(-c4ccc(F)cc4)c3-c3ccncc3)CC2)cc1` yielded a melting point of 231 to 233 °C.

For `ON=C(c1ccc(Cl)cc1)c1ccc(Cl)cc1Cl`, the melting point is 98 to 100 °C.

`CN(C)CCCC(=O)Nc1nc2c(s1)-c1c(cnn1-c1ccccc1)C2` gave a melting point of 218 to 222 °C.

`O=C(CC(F)(F)F)N[C@H]1CC[C@H](CCN2CCN(c3nccc4c3CCO4)CC2)CC1`: the melting point stood at 196 °C.

In turn, `CCNC(=O)C(I)=C(Br)I` came in with a melting point of 154 to 155 °C.

In the case of `CN(Cc1ccccc1)c1ccc(C(=O)O)nc1`, the melting point was in the range of 168 to 173 °C.

For the compound `Cc1cccc(N=C2NCCN2)c1`, the melting point stood at 115 °C.

`CCOC(=O)c1c(O)c2cc(C)ccc2n(Cc2ccc(F)cc2)c1=O` showed a melting point of 130 °C.

With `NC(=O)c1nc(-c2ccccc2)c(-c2ccc(=O)[nH]n2)s1`, the melting point is > 250 °C.

Take `C=CC(c1ncc([N+](=O)[O-])n1C)N(C)C` (stereo not drawn): the melting point is 110 to 113 °C.

Compound `CN1Cc2c(C(N)=O)ncn2-c2ccc(Cl)cc2C1=O` had a melting point of 275 to 277 °C.

Take `CCOc1cc2c(Nc3cc(OC)c(Cl)cc3Cl)c(C#N)cnc2cc1C#CCCN1CCN(C)CC1`: the melting point lay in the range of 158 to 160 °C.

`CC(C)(NC(=O)OCc1ccccc1)C(=O)NCCCc1ccccc1` yielded a melting point of 84 to 92 °C.

For `COc1ccccc1Nc1nnc(Cc2ccncc2)c2ccccc12`, the melting point lay in the range of 190 to 191 °C.

Regarding `CN(C)C1(c2ccccc2)CCC2(NCCc3c2[nH]c2ccccc32)C(Sc2ccccc2)C1` (stereo not drawn), the melting point lay in the range of 171 to 173 °C.

Regarding `COCC1COC(Cn2cncn2)(c2ccc(Cl)cc2Cl)O1` (stereo not drawn), the melting point is 64 to 74 °C.

With `CC[Si](C#Cc1ccc2nc(-c3ncc[nH]3)nc(NCCOC)c2c1)(CC)CC`, the melting point lay within 158 to 160 °C.

With `c1ccc(N2C(=NCCCn3ccnc3)c3cccc4cccc2c34)cc1`, the melting point is 103 to 105 °C.

`NC(=O)N(O)CC1=NOC(c2ccc(F)cc2)C1` (stereo not drawn) returned a melting point of 151 to 152 °C.

`COC(=O)C(O)P(C)(C)=O` (stereo not drawn) yielded a melting point of 84 to 86 °C.

The compound `COC(=O)C=Cc1cnc(Cl)cc1NCc1ccc(OC)c(Cl)c1` had a melting point of 170 to 171 °C.

In turn, `Cc1cc(O)c(SCc2ccc(Cl)cc2)c(=O)o1` had a melting point of 139 to 141 °C.

In turn, `Cc1c(NC(=O)c2ccc(-c3ccc(F)c(F)c3)cc2)ccc2cc(CN3CCCC3)cnc12` returned a melting point of 199 to 201 °C.

Consider `Nc1ccc(C2CCSCC2)cc1`, for which the melting point is 103 to 106 °C.

`CCCCCCCCCCCCCCCCSCC1(CNS(=O)(=O)CCCCl)CCCO1` (stereo not drawn): the melting point lay in the range of 44.5 to 45.5 °C.

`O=C1CCCC1n1nc(-c2c(-c3ccccc3)nn3ccccc23)ccc1=O` (stereo not drawn) returned a melting point of 167 to 168 °C.

Take `O=C(O)c1ccc2c(=O)nc(-c3ccccn3)sc2c1`: the melting point amounted to 295 °C.

As for `CCOC(=O)N1CCc2nc3cccc(N)c3c(C)c2CC1`, the melting point was 182 °C.

`CC[C@H](C)C(OCc1ccccc1)[C@@H]1[C@H]([N+](=O)[O-])[C@H](c2ccccc2)N[C@]1(C)C(=O)NCCC(=O)O` (stereo partly drawn) registered a melting point of 104 to 105 °C.

With `COC(=O)c1ccc(-n2cc(-c3ccc4c(c3)C(C)(C)CCC4(C)C)cn2)cc1`, the melting point lay in the range of 229 to 232 °C.

For `COC(C)CNc1nccc(-c2ccnc(Nc3cccc(F)c3)c2)n1` (stereo not drawn), the melting point lay within 103 to 105 °C.

As to `COc1ccc(OCC(O)COc2cccc(O)c2C(C)=O)cc1` (stereo not drawn), the melting point lay within 100 to 102 °C.

The compound `O=C1CC(c2cccc(-c3nc(CN4CCOCC4)co3)c2)=Nc2ccc(-n3cccc3)cc2N1` registered a melting point of 166 to 167 °C.

`C=C(C#N)CCC(=O)O` came in with a melting point of 26.5 to 27 °C.

For the compound `c1ccc(OCCSCc2nnc(-c3ccc(OCc4ccccn4)cc3)o2)cc1`, the melting point worked out at 115 °C.
